In ChEMBL document CHEMBL1131956, “Nucleomimetic strategy for the inhibition of HIV-1 nucleocapsid protein NCp7 activities” (1999):

Tests used:
[1] = molecular target: Human immunodeficiency virus type 1 reverse transcriptase (Human immunodeficiency virus 1) (UniProt Q72547); test: Reverse transcriptase activity using an HIV-1 infected cell line at 10 micro M concentration
[2] = system: Human immunodeficiency virus 1; test: Affinity for HIV-1 Nucleocapsid Protein (12-53)NCp7 was determined; type: functional

inhibition [1] [%]	Compound	Affinity [2] [M⁻¹]
20	Cc1cn(C2CC(CC(=O)NC3OC(n4cnc5c(O)nc(N)nc54)CC3O)C(CO)O2)c(=O)[nH]c1=O (configuration not stated)	
	Cc1cn(C2CC(O)C(NC(=O)CC3CC(n4cnc5c(O)nc(N)nc54)OC3CO)O2)c(=O)[nH]c1=O (configuration not stated)	9
